One assay relates to Haemonchus contortus. The experiment in a line: Haemonchus contortus larvacidal assay: NemaTOX H. contortus dose response (larval development, eggs to L3). Particulars: Haemonchus contortus, 144 h; Table 3; concentration required to inhibit development in 99% of the nematode larvae; eggs on agar to L3 stage (6 days); two-fold dilutions, 0.024 to 50 μg/ml; read-out: LD99. It counts as cell-based. As for the experimental part:
Haemonchus Contortus Larvacidal Assay: NemaTOX H.contortus Dose Response (00/0510)
Effect on larval development is determined in the assay described by Gill et al. (International Journal of Parasitology, 1995, 25, 463-470). Briefly, in this assay nematode eggs were applied to the surface of an agar matrix containing the test compound and then allowed to develop through to the L3, infective stage (6 days)
The wells for each dilution of every compound (from highest to lowest concentration) were inspected to determine the well number corresponding to the lowest concentration at which development was inhibited in 99% of the nematode larvae present. As the well numbers correspond to a two-fold serial dilution of each compound, a titre (dilution factor) is generated as 2^n-1, where n is the well number. By dividing the highest concentration tested by the titre an LD99 value can be obtained, representing the concentration required to inhibit development in 99% of the nematode larvae present.
The compounds supplied as solid and viscous liquids were dissolved in DMSO. Twelve serial 1/2 dilutions in DMSO solution were prepared from the stock solution, each of which was then diluted 1/5 with water. Aliquots (10 μl) of each dilution were transferred to the bioassay plates to give a final concentration range of 0.024 to 50 μg/ml.
In Tables 1, 2 and 3 the Haemonchus contortus LD99 values for compounds in accordance with the present invention are listed, measured in micrograms/mL.
Regarding `CCCOc1ccc2nc3c(n2n1)CCc1cc(OC)ccc1-3` [Compound 121, 3-Methoxy-8-propoxy-5,6-dihydro-6b,7,11-triaza-benzo[a]fluorene], the IC99 stood at 0.203 µg/mL. Turning to `CCCOc1ccc2nc3c(n2n1)Cc1ccccc1-3` [Compound 123, 3-Propoxy-5H-4,4a, 10-triaza-indeno[2,1-a]indene], the IC99 was found to be 0.469 µg/mL.

Staying with this assay, now noted: Table 1; concentration required to inhibit development in 99% of the nematode larvae; eggs on agar to L3 stage (6 days); two-fold dilutions, 0.024 to 50 μg/ml.
`CCOc1ccc(-c2cn3nc(OCC)ccc3n2)cc1` [Compound 60] yielded an LD99 of 0.172 micrograms/mL. On the same count and under the same terms, next, `CCCOc1ccc2nc(-c3ccc4c(c3)OCCO4)cn2n1` [Compound 61]: 0.813 micrograms/mL; `CCCOc1nn2cc(-c3ccc(OCC)cc3)nc2c2ccccc12` [Compound 62]: 0.625 micrograms/mL.

Still in this assay, the particulars now being: Table 2; concentration required to inhibit development in 99% of the nematode larvae; eggs on agar to L3 stage (6 days); two-fold dilutions, 0.024 to 50 μg/ml.
Molecule `COCCOc1ccc(-c2cn3nc(OCCOC)ccc3n2)cc1` [Compound 64] came in with an LD99 of 6 micrograms/mL. `CCCOc1ccc2nc(-c3ccc(OCCOC)c(OC)c3)cn2n1` [Compound 66] returned an LD99 of 0.81 micrograms/mL. On the same count and under the same terms, next, `COCCOc1ccc(-c2cn3nc(N4CCCCC4)ccc3n2)cc1` [Compound 67]: 1.5 micrograms/mL; `CCCSc1ccc2nc(-c3ccc(OCCOC)c(OC)c3)cn2n1` [Compound 68]: 0.44 micrograms/mL; `COCCOc1ccc(-c2cn3ncccc3n2)cc1` [Compound 69]: 15 micrograms/mL.

On to `COCCOc1ccc(-c2cn3nc(N4CCCC4)ccc3n2)cc1` [Compound 70], for which the LD99 is given as 3.25 micrograms/mL. Same read-out and setting: the value for `CCCNc1ccc2nc(-c3ccc(OCCOC)cc3)cn2n1` [Compound 71] was 0.688 micrograms/mL; that for `COCCOc1ccc(-c2cn3nc(OC4CCCC4)ccc3n2)cc1` [Compound 73] was 1.875 micrograms/mL; that for `OCCOc1ccc(-c2cn3nc(OC4CCCC4)ccc3n2)cc1` [Compound 74] was 7 micrograms/mL. The molecule `CCCOc1ccc2nc(-c3ccc(OCCOC)cc3)c(Br)n2n1` [Compound 81] had an LD99 of 0.0137 micrograms/mL.

`CCCOc1ccc2nc(-c3ccc(OCCOC)c(Br)c3)c(C)n2n1` [Compound 83] gave an LD99 of 0.375 micrograms/mL. The molecule `CCCOc1ccc2nc(-c3ccc(OCCOC)cc3)c(C)n2n1` [Compound 84] yielded an LD99 of 0.109 micrograms/mL. As for `COCCOc1ccc(-c2nc3ccc(-c4ccccc4)nn3c2C)cc1` [Compound 85], the LD99 was found to be 1.88 micrograms/mL. The same measure, in the same setting: next, `COCCOc1ccc(-c2nc3ccc(Cl)nn3c2C)cc1Br` [Compound 86]: 3 micrograms/mL. Same read-out and setting: next, `COCCOc1ccc(-c2nc3ccc(Cl)nn3c2C)cc1` [Compound 87]: 0.156 micrograms/mL; `CCCSc1ccc2nc(-c3ccc(OCCOC)c(OC)c3)c(Br)n2n1` [Compound 89]: 0.75 micrograms/mL; `COCCOc1ccc(-c2cn3nc(Br)ccc3n2)cc1` [Compound 90]: 3 micrograms/mL. In the case of `COCCOc1ccc(-c2cn3nc(OCc4ccccc4)ccc3n2)cc1` [Compound 92], the LD99 worked out at 0.438 micrograms/mL. On the same count and under the same terms, the value for `COCCOc1cccc(-c2nc3ccc(Br)nn3c2C)c1` [Compound 93] was 11 micrograms/mL; that for `CCCOc1ccc2nc(-c3cccc(OCCOC)c3)c(C)n2n1` [Compound 94] was 1.88 micrograms/mL.

In turn, `COCCOc1cccc(-c2nc3ccc(OCC4CC4)nn3c2C)c1` [Compound 95] gave an LD99 of 0.875 micrograms/mL.

Take `CCCCSc1ccc2nc(-c3ccc(OCCOC)cc3)cn2n1` [Compound 99]: the LD99 is recorded as 0.0938 micrograms/mL. Still for that read-out and setting: the value for `CCOc1ccc2nc(-c3ccc(OCCOC)cc3)cn2n1` [Compound 100] was 0.406 micrograms/mL; that for `CCSc1ccc2nc(-c3ccc(OCCOC)cc3)cn2n1` [Compound 101] was 0.3123 micrograms/mL; that for `COCCOc1cccc(-c2nc3ccc(SCC(C)C)nn3c2C)c1` [Compound 102] was 12 micrograms/mL. Still for that read-out and setting: the value for `COCCOc1cccc(-c2nc3ccc(SC(C)C)nn3c2C)c1` [Compound 103] was 7 micrograms/mL; that for `COCCOc1cccc(-c2nc3ccc(OC(C)C)nn3c2C)c1` [Compound 104] was 5 micrograms/mL; that for `COCCOc1ccc(-c2cn3nc(SCC(C)C)ccc3n2)cc1OC` [Compound 105] was 0.406 micrograms/mL. With `CCCCOc1ccc2nc(-c3ccc(OCCOC)c(OC)c3)cn2n1` [Compound 106], the LD99 came to 0.313 micrograms/mL. For `COCCOc1ccc(-c2cn3nc(OC(C)C)ccc3n2)cc1OC` [Compound 107], the LD99 is listed as 7 micrograms/mL.

With `COCCOc1ccc(-c2cn3nc(SCC(C)C)ccc3n2)cc1` [Compound 108], the LD99 is 0.313 micrograms/mL. In turn, `COCCOc1ccc(-c2cn3nc(SC(C)C)ccc3n2)cc1` [Compound 109] had an LD99 of 0.203 micrograms/mL. Same read-out and setting: next, `CCCCOc1ccc2nc(-c3ccc(OCCOC)cc3)cn2n1` [Compound 111]: 0.219 micrograms/mL; `COCCOc1ccc(-c2cn3nc(OC(C)C)ccc3n2)cc1` [Compound 112]: 1.63 micrograms/mL. Still for that read-out and setting: the value for `CCCOc1ccc2nc(-c3ccc(OCCOC)c(OC)c3)c(I)n2n1` [Compound 113] was 5 micrograms/mL. The same measure, in the same setting: the value for `COCCOc1ccc(-c2nc3ccc(SCC(C)C)nn3c2CN(C)C)cc1` [Compound 114] was 3.25 micrograms/mL.

`CCCCSc1ccc2nc(-c3ccc(OCCOCC)cc3)cn2n1` [Compound 115] yielded an LD99 of 0.219 micrograms/mL. The same measure, in the same setting: next, `CCCOc1ccc2nc(-c3ccc(OCCOCC)cc3)cn2n1` [Compound 116]: 0.109 micrograms/mL; `CCOCCOc1ccc(-c2cn3nc(OCC4CC4)ccc3n2)cc1` [Compound 117]: 0.0391 micrograms/mL.

In turn, `CCOc1ccc2nc(-c3ccc(OCCOC)c(OC)c3)cn2n1` [Compound 118] returned an LD99 of 1.25 micrograms/mL. `CCCOc1nn2cc(-c3ccc(OCCOC)cc3)nc2c2ccccc12` [Compound 119] returned an LD99 of 0.344 micrograms/mL. As for `CCCOc1nn2cc(-c3ccc(OCCO)cc3)nc2c2ccccc12` [Compound 120], the LD99 amounted to 1.38 micrograms/mL.
